# Reference: patent US20250082656A1, “DOSAGE REGIMENS FOR TREATMENT OF DENGUE INFECTION” (Atea Pharmaceuticals, Inc., priority 2022, published 2025)
# Like-named read-outs stand apart in the source and are kept apart here.
# Assays:
# [1] = Plasma PK after single oral dose of AT-752, rats; type: in vivo, SD rats; settings: Rat, single oral AT-752 300 mg/kg, plasma
# Method: (§1) Male SD rats were administered 300 mg/kg Compound 2 (AT-752). Blood samples were collected up to 24 hrs. post dose, plasma separated and analyzed for Compound 1 (AT-281), Compound 3 (AT-551), and Compound 6 (AT-273) by LC-MS/MS. Data are express as mean+/−SD (n=3-5/time point). The x-axis is time post the dose measured in hours and the y-axis is the plasma concentration of the metabolites measured in nanomoles/mL). The experimental procedure is provided in Example 14.
# Male naïve SD rats (Beijing Vital River Laboratory Animals Co. Ltd., China) were administered a dose of AT-752 at 300 mg/kg in 40% PEG400, 10% solutol HS15, 50% 100 mM citrate buffer, pH 4.5 (v/v) by oral gavage. Blood samples (n=4) were collected at 1, 2, 4, 8, 12 and 24 h post-dose, plasma separated and stored at −70° C. […] For PBMCs, nine male naïve SD rats were administered a dose of Compound 2 (AT-752) (at a Compound 1 (AT-281) equivalent dose of 300 mg/kg) by oral gavage.
# (§2) Pharmacokinetic measurements for FIGS. 11, 12, 13, 14, and 15 were analyzed using LC-MS/MS according to the protocol described herein. Plasma samples were prepared for MS analysis by adding internal standards and extracting with 20 volumes chilled ACN. After vortex (800 rpm for 10 min) and centrifugation (4,000 rpm, 15 min, 4° C.), the supernatants (25 μL) were diluted with an equal volume of H2O, mixed and spun again. After adding internal standards, the PBMC samples (10^6 cells) were lyzed with 300 μL MeOH/H2O (70:30, v/v) and 40 mM dibutylammonium acetate (DBAA), mixed by vortex and centrifuged (12,000 rpm, 15 min, 4° C.). Aliquots of the supernatants (35 μL) were dried under nitrogen and reconstituted in H2O, then mixed and spun again. […] A binary nonlinear gradient with mobile phases A (0.1% formic acid in water) and B (0.1% formic acid in ACN) were used to elute samples at 0.8 mL/min, with a run time of 5 min. […] A binary nonlinear gradient with mobile phases A (0.001% NHr H2O, 0.18 mM DBAA in H2O) and B (10 mM N,N-dimethyl-hexylamine, 3 mM NH4OAc in ACN/H2O (50.50, v/v)) were used to elute samples at 0.5 mL/min, with a run time of 3 min. Standards in 50% MeOH were used for calibration. […] Internal standards (ISS) as described previously (Good et al., Preclinical evaluation of AT-527, a novel guanosine nucleotide prodrug with potent, pan-genotypic activity against hepatitis C virus. PLos One 15:e02271045) were used to correct for variations in recovery.
# (§3) Data analysis of the pharmacokinetic data generated according to Example 21 and presented in FIGS. 11, 12, 13, 14, and 15 was analyzed according to the procedure described herein. Plasma concentrations of Compound 1 (AT-281), Compound 3 (AT-551) and Compound 6 (AT-273) were subjected to non-compartmental pharmacokinetic analysis using Phoenix WinNonlin software (version 6.3 or above, Pharsight, Mountain View, CA). The linear/log trapezoidal rule was applied in obtaining the PK parameters.
# [2] = Plasma PK after single oral dose of AT-752, monkeys; type: in vivo, cynomolgus monkeys; settings: Monkey, single oral AT-752 300 mg/kg, plasma
# Method: as §1, with “cynomolgus monkeys” for “SD rats”
# Male non-naïve cynomolgus monkeys (Hainan Jingang Laboratory Animal Co. Ltd., China), at least 2 kg body weight, were individually housed during the study in stainless steel mesh cages, provided ad libitum access to RO water, fed twice daily (except on the day of dosing when they were fed once) with ˜60 g Certified Monkey Diet each feed (Beijing Vital Keao Feed Co., Ltd., Beijing, China) and given daily treats of fresh fruit. They (n=5) were administered a dose of Compound 2 (AT-752) at 300 mg/kg in 40% PEG400, 10% solutol HS15, 50% 100 mM citrate buffer, pH 4.5 (v/v) by oral gavage, and blood samples (˜0.5 mL) were collected at 1, 2, 4, 8, 12 and 24 h post dose. Plasma was separated at each time point for pharmacokinetics, and stored at −70° C. […] Separately, three monkeys were given an oral dose of Compound 2 (AT-752) as powder in capsules at 60 mg/kg ([…] (AT-281) equivalent dose of 55 mg/kg), and blood samples collected at 12, 24 and 48 h post dose.
# as §2, §3
# [3] = Pharmacokinetic study in SAD cohorts; type: in vivo, human; settings: for dose proportionality of plasma exposure: dose range 250 to 1500 mg; for Urine Elimination: following single oral administration of Compound 2 at 250 to 1500 mg; for AUCInf / Cmax / T1/2 / Tmax: human plasma; for CLR: human
# Method: as §2, §3
# [4] = steady-state, human plasma; for AUCtau / Cmax: mean±SD; for Tmax: median (minimum-maximum)
# [5] = Plasma PK after single oral dose of AT-752, mice; settings: Mouse, single oral AT-752 420 mg/kg
# [6] = single oral Compound 2 250 mg, fasting
# [7] = single oral Compound 2 500 mg, fasting
# [8] = single oral Compound 2 500 mg, fed
# [9] = single oral Compound 2 500 mg, fed (high-fat/high-calorie meal)
# [10] = single oral Compound 2 1000 mg, South/Southeast/East Asian origin
# [11] = single oral Compound 2 1000 mg, fasting
# [12] = single oral Compound 2 1000 mg, patients of South/Southeast/East Asian origin
# [13] = single oral Compound 2 1500 mg, fasting
structure (smiles),measurement,setting,value
CNc1nc(N)nc2c1ncn2C1OC(COP(=O)(O)NC(C)C(=O)O)C(O)C1(C)F (stereo not drawn) [Compound 3],AUC0-24 h,[1],56.5 µM·h
same,Cmax,[1],16.5 ± 10.8 µM
same,AUC0-24 h,[2],9.7 ± 2.2 µM·h
same,Cmax,[2],2 ± 0.8 µM
same,Tmax,[2],2.0 ± 0.0 h
same,dose proportionality of plasma exposure,[3],greater than dose-proportional manner
same,Urine Elimination,[3],< 1%
same,AUCInf,[3]; [6],302 ± 71 ng·h/mL
same,Cmax,[3]; [6],89 ± 36 ng/mL
same,T1/2,[3]; [6],2.1 ± 0.3 h
same,Tmax,[3]; [6],1.0 (0.8-2.0) h
same,AUCInf,[3]; [7],898 ± 437 ng·h/mL
same,Cmax,[3]; [7],231 ± 155 ng/mL
same,T1/2,[3]; [7],2.4 ± 0.5 h
same,Tmax,[3]; [7],1.0 (0.8-8.0) h
same,AUCInf,[3]; [8],737 ± 289 ng·h/mL
same,T1/2,[3]; [8],2.3 ± 0.4 h
same,Tmax,[3]; [8],3.1 (3.0-4.0) h
same,Cmax,[3]; [9],154 ± 84 ng/mL
same,AUCInf,[3]; [10],3320 ± 1630 ng·h/mL
same,T1/2,[3]; [10],2.0 ± 0.3 h
same,Tmax,[3]; [10],0.9 (0.5-2.0) h
same,AUCInf,[3]; [11],2330 ± 1060 ng·h/mL
same,Cmax,[3]; [11],695 ± 468 ng/mL
same,T1/2,[3]; [11],2.2 ± 0.4 h
same,Tmax,[3]; [11],0.8 (0.5-2.0) h
same,Cmax,[3]; [12],895 ± 418 ng/mL
same,AUCInf,[3]; [13],4100 ± 494 ng·h/mL
same,Cmax,[3]; [13],1080 ± 217 ng/mL
same,T1/2,[3]; [13],3.2 ± 1.2 h
same,Tmax,[3]; [13],1.5 (0.8-2.0) h
same,CLR,[3]; [6],2.0 ± 0.3 L/h
same,CLR,[3]; [7],2.1 ± 0.6 L/h
same,CLR,[3]; [8],2.1 ± 0.4 L/h
same,CLR,[3]; [10],2.1 ± 0.6 L/h
same,CLR,[3]; [11],2.1 ± 0.6 L/h
same,CLR,[3]; [13],1.9 ± 0.4 L/h
same,AUCtau,[4]; Compound 2 750 mg BID,1330 ± 503 ng·h/mL
same,Cmax,[4]; Compound 2 750 mg BID,365 ± 159 ng/mL
same,Tmax,[4]; Compound 2 750 mg BID,1.0 (0.8-2.0) h
same,AUCtau,[4]; Compound 2 750 mg TID,944 ± 173 ng·h/mL
same,Cmax,[4]; Compound 2 750 mg TID,245 ± 30 ng/mL
same,Tmax,[4]; Compound 2 750 mg TID,1.5 (0.8-2.0) h
same,AUCtau,[4]; Compound 2 1000 mg QD,1650 ± 498 ng·h/mL
same,Cmax,[4]; Compound 2 1000 mg QD,392 ± 143 ng/mL
same,Tmax,[4]; Compound 2 1000 mg QD,1.0 (0.8-2.0) h
same,AUC0-24 h,[5],58.7 ± 13.3 µM·h
same,Cmax,[5],45.1 ± 12 µM
same,Tmax,[5],0.5 ± 0.0 h
CNc1nc(N)nc2c1ncn2[C@@H]1O[C@H](CO)[C@@H](O)[C@@]1(C)F [Compound 7],dose proportionality of plasma exposure,[3],dose-proportional manner
same,Urine Elimination,[3],10.7-17.9%
same,AUCInf,[3]; [6],2890 ± 680 ng·h/mL
same,Cmax,[3]; [6],446 ± 121 ng/mL
same,T1/2,[3]; [6],16.9 ± 8.6 h
same,Tmax,[3]; [6],2.1 (2.0-3.0) h
same,AUCInf,[3]; [7],5480 ± 1630 ng·h/mL
same,Cmax,[3]; [7],765 ± 307 ng/mL
same,T1/2,[3]; [7],15.1 ± 6.2 h
same,Tmax,[3]; [7],1.0 (0.8-4.0) h
same,AUCInf,[3]; [8],4310 ± 1400 ng·h/mL
same,T1/2,[3]; [8],11.2 ± 4.9 h
same,Tmax,[3]; [8],4.0 (3.0-6.1) h
same,Cmax,[3]; [9],488 ± 324 ng/mL
same,AUCInf,[3]; [10],14000 ± 4210 ng·h/mL
same,T1/2,[3]; [10],14.7 ± 10.1 h
same,Tmax,[3]; [10],1.5 (0.8-2.0) h
same,AUCInf,[3]; [11],10300 ± 3070 ng·h/mL
same,Cmax,[3]; [11],1640 ± 474 ng/mL
same,T1/2,[3]; [11],12.4 ± 10.7 h
same,Tmax,[3]; [11],0.9 (0.8-3.0) h
same,Cmax,[3]; [12],2010 ± 489 ng/mL
same,AUCInf,[3]; [13],16700 ± 3780 ng·h/mL
same,Cmax,[3]; [13],2030 ± 600 ng/mL
same,T1/2,[3]; [13],12.5 ± 3.8 h
same,Tmax,[3]; [13],2.0 (1.0-2.0) h
same,CLR,[3]; [6],13.7 ± 1.6 L/h
same,CLR,[3]; [7],13.6 ± 5.4 L/h
same,CLR,[3]; [8],12.5 ± 2.8 L/h
same,CLR,[3]; [10],13.4 ± 2.5 L/h
same,CLR,[3]; [11],14.2 ± 3.8 L/h
same,CLR,[3]; [13],15.0 ± 2.4 L/h
same,AUCtau,[4]; Compound 2 750 mg BID,7960 ± 2970 ng·h/mL
same,Cmax,[4]; Compound 2 750 mg BID,1470 ± 404 ng/mL
same,Tmax,[4]; Compound 2 750 mg BID,1.5 (0.8-2.2) h
same,AUCtau,[4]; Compound 2 750 mg TID,22300 ± 14100 ng·h/mL
same,Cmax,[4]; Compound 2 750 mg TID,1600 ± 640 ng/mL
same,Tmax,[4]; Compound 2 750 mg TID,1.5 (1.0-2.0) h
same,AUCtau,[4]; Compound 2 1000 mg QD,8290 ± 2290 ng·h/mL
same,Cmax,[4]; Compound 2 1000 mg QD,1200 ± 284 ng/mL
same,Tmax,[4]; Compound 2 1000 mg QD,0.9 (0.8-2.0) h
